Laboratory results taken from ChEMBL document CHEMBL1147322, “X-ray crystal structure of acrovestone, a cytotoxic principle from Acronychia pedunculata” (1989).
Converted amounts (≈) assume the structure as drawn.

Columns and labels:
Format in all cases: functional
[1] = system: A549; test: Cytotoxicity against human A549 cells; conditions: read-out: ED50 (the source's name)
[2] = system: KB; test: Cytotoxicity against human KB cells at 0.5 ug/ml
[3] = system: P388; test: Cytotoxicity against mouse P388 cells; conditions: read-out: ED50 (the source's name)
[4] = system: L1210; test: Cytotoxicity against mouse L1210 cells; conditions: read-out: ED50 (the source's name)

`COc1c(CC=C(C)C)c(O)c([C@H](CC(C)C)c2c(O)c(CC=C(C)C)c(O)c(C(C)=O)c2O)c(O)c1C(C)=O` [ACROVESTONE] showed an EC50 [1] of 0.98 µg/mL (≈ 1.77 µM), an inhibition at 0.5 µg/mL [2] of 100% and an EC50 [3] of 3.28 µg/mL (≈ 5.91 µM). It also gave an EC50 [4] of 2.95 µg/mL (≈ 5.32 µM).
